Experimental data as given in article PMC8345219 (Cancers, 2021).
pIC50: −log10 of the molar value.

What was measured:
[1] = tested on: HEK293 cells stably transfected with CMKLR1-eYFP; assay: Resazurin-based cell viability assay, HEK293-CMKLR1; conditions: Homo sapiens; HEK293-CMKLR1, 72 h; read-out: IC50 (toxicity)
Procedure: (§1) HEK293 cells stably transfected with CMKLR1-eYFP, empty HEK293 cells (15,000 cells in 100 µL suspension/well), or HMEC-1 cells (5000 cells in 100 µL suspension/well) in their respective cell culture media were seeded in 96 well plates (coated with poly D-lysine for HEK cells) and incubated at standard conditions overnight. Afterward, cells were incubated with peptides or MTX dissolved in cell culture media, and a medium without peptides was used as a control. […] Ethanol or media was removed and a 50 µL resazurin-based in vitro toxicology assay kit (Sigma-Aldrich, St. Lous, MO, USA) in cell culture media (1:10) was added to each well. After 1 h incubation time, the conversion of the resazurin was detected by measuring the fluorescence intensity at λem = 590 nm. All experiments were performed in duplicates and each experiment was repeated at least three times. Nonlinear regression was calculated using GraphPad Prism 5, curves were normalized to untreated and ethanol-treated cells.

HMEC-1 cells = assay: Resazurin-based cell viability assay, HMEC-1; conditions: Homo sapiens; HMEC-1 cells endogenously expressing CMKLR1, 72 h; read-out: IC50 (toxicity)
Procedure: as §1

[2] = tested on: untransfected HEK293 cells; assay: Resazurin-based cell viability assay, untransfected HEK293; conditions: Homo sapiens; HEK293 cells devoid of CMKLR1, 72 h; read-out: IC50 (toxicity)
Procedure: as §1

Compound: CN(Cc1cnc2nc(N)nc(N)c2n1)c1ccc(C(=O)N[C@@H](CCC(=O)O)C(=O)O)cc1 [MTX, Methotrexate, reference compound]
- pIC50 [1]: 6.33
- pIC50 (HMEC-1 cells): 5.00
- pIC50 [2]: 6.43
